According to US9624491B2, “Methods and compositions for the detection and treatment of cancer involving miRNAs and miRNA inhibitors and targets” (Memorial Sloan Kettering Cancer Center, priority 2010, dated 2017):

Columns and labels:
[1] = system: PTEN, BCL2L11, PHF6, IKZF1, NF1, FBXW7; assay: 3′UTR reporter, quantitative PCR and immunoblot assays of tumor suppressor genes in murine leukemias; format: cell-based; details: murine T-ALLs expressing NOTCH1 and miRNA, mRNA, protein
Experimental: Immunoblots of whole cell lysates were performed as described (Wendel, et al., 2004). Antibodies were against Bim/Bcl2l11 (AAP-330, 1:1000, Assay Designs), Nf1 (sc67, 1:100, Santa Cruz), Cdc4/Fbxw7 (ab7405, 1:500, Abeam), Ikzf1 (sc-13039, 1:500, Santa Cruz), Phf6 (NB100-79861, 1:1000, Novus Biologicals), Pten (9559, 1:1000, Cell Signaling), tubulin (1:5000; Sigma, B-5-1-2) and actin (1:5000; Sigma, AC-15).
Total RNA and miRNA-enriched RNA was extracted using the Allprep DNA/RNA/Protein and miRNeasy Mini kits. Pathological diagnosis was by expert hematopathologists at Weill Cornell Medical Center. cDNA synthesis, PCR and analysis by the ΔΔ Ct method were as described (Mavrakis, et al., 2008) and utilized Taqman Gene Expression Assays: Bcl2l11 (Mm00437796_m1), BCL2L11 (Hs00197982_m1), Pten (Mm01212532_m1), PTEN (Hs02621230_s1), Nf1 (Mm00812430_m1), NF1 (Hs01035104_m1), Ikzf1 (Mm01187878_m1), IKZF1 (Hs00172991_m1), Fbxw7 (Mm00504452_m1), FBXW7 (Hs00217794_m1), Phf6 (Mm00804415_m1), and Mouse GAPD (GAPDH) (4352932, Applied Biosystems). Expression was normalized to RNU6B (001093, Applied Biosystems).
The mouse FBXW7 (bp 2793-4139; acc. no. NM_001177773), human NF1 (bp 10033-10666; acc. no NM_000267), human PHF6 (bp position 3271-4299; acc. no. NM_001015877) and Bim (bp. 3155-4773; acc. no. NM_009754) 3′UTR fragments were generated by PCR and cloned into the psi-CHECK-2 vector (Promega) with the exception of the IKZF1 3′UTR, which was purchased from Genecopoeia (cat no. HmiT000397b, by 2343-4471 of UTR). The assays were performed as described (Xiao, et al., 2008).

[2] = system: NOTCH1-induced T-ALL; assay: Mouse model of Notch-ICN (NOTCH1)-induced T-ALL, adoptive transfer of transduced HPCs; format: in vivo; details: HPCs expressing NOTCH1-ICN plus miRNA or shRNA transplanted into irradiated recipients
Experimental: Can miR-19 drive the development of lymphatic malignancies in vivo? Based on the miR-19 expression and translocation data, miR-19 was assessed in a mouse model of T-ALL (Pear, et al., 1996). Briefly, most cases of T-ALL carry mutations in the Notch1 gene, and, like the […] translocation, these generate the constitutively active intracellular domain of NOTCH1 (Notch-ICN) (Weng, et al., 2004). To test miR-19's ability to promote Notch-ICN-induced T-ALL in vivo, HPCs were adoptively transferred into irradiated recipients (FIG. 3d). […] At the same time, 80% of the mice receiving HPCs expressing only Notch-ICN remained disease free (p=0.0003) (FIG. 3e).
The mouse models of Notch1-induced T-ALL and the EμMyc lymphoma based on adoptive transfer of retrovirally transduced HPCs have been reported (Pear, et al., 1996), (Wendel, et al., 2004). Data were analyzed in Kaplan-Meier format using the log-rank (Mantel-Cox) test for statistical significance. The p53 loss of heterozygosity polymerase chain reaction (LOH PCR) and immunophenotyping by surface marker analysis were as described (Wendel, et al., 2004).
A murine model of NOTCH1-induced T-ALL was used to directly test the oncogenic potential of the most promising miRNAs in vivo. Briefly, HPCs were transduced with NOTCH1 together with either empty vector or an miRNA and transplanted into irradiated, syngeneic recipients. Animals were monitored for leukemia onset by regular blood counts (FIG. 22a). […] Typically, animals receiving HPCs transduced with these miRNAs develop an acute leukemia by 75 days, while >80% of vector controls or animals receiving miR-30 (n=5, p=0.15) remain disease free at this time (FIG. 22b). Based on the in vitro screen and prediction, additional miRNAs were tested. […] Thus, miR-19b, miR-20a, miR-26a, miR-223 and also the less abundant miR-27a and miR-148/152 behave as oncogenes in a murine T-ALL model.
The mouse T-ALL model has been reported (Pear, et al., 1996), (Wendel, et al., 2004). Data were analyzed in Kaplan-Meier format using the log-rank (Mantel-Cox) test for statistical significance. […]

For “miR-148: miRNA, UCAGUGCACUACAGAACUUUGU (SEQ ID NO: 8) (expressed or natural sequence; listed as Homo sapiens)”, the “regulation of tumor suppressor genes” value [1] was “regulate IKZF1, NF1 and FBXW7” and the “leukemia onset / leukemia-free survival” value [2] was “significant disease acceleration”.
